Assay: Anticancer human tumor 997537-175-T-J1-PDC patient-derived colon adenocarcinoma cell line growth inhibition [POLQ]
Conditions: 997537-175-T-J1-PDC complex spheroid viability, combination with POLQ inhibitors; for IC50: curve of first compound; for viability, T/C: stronger effect = lower value
Procedure, shortened: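 Patient-derived tumour cells were co-cultured with HUVEC and mesenchymal stem cells as multicellular spheroids at 37 °C. They were treated with POLQ inhibitors (novobiocin, ART-558, RP6685) alone or combined with other agents. Top concentrations were at or near clinical Cmax (otherwise 10 microM; SN-38 at 1 microM), decreasing in half-log steps.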

[1] = second compound 0.0316 µM, first compound 0.0316 µM
[2] = second compound 0.0316 µM, first compound 0.1 µM
[3] = second compound 0.0316 µM, first compound 0.316 µM
[4] = second compound 0.0316 µM, first compound 1 µM
[5] = second compound 0.0316 µM, first compound 3.16 µM
[6] = second compound 0.0316 µM, first compound 10 µM
[7] = second compound 0.1 µM, first compound 0.0316 µM
[8] = second compound 0.1 µM, first compound 0.1 µM
[9] = second compound 0.1 µM, first compound 0.316 µM
[10] = second compound 0.1 µM, first compound 1 µM
[11] = second compound 0.1 µM, first compound 3.16 µM
[12] = second compound 0.1 µM, first compound 10 µM
[13] = second compound 0.316 µM, first compound 0.0316 µM
[14] = second compound 0.316 µM, first compound 0.1 µM
[15] = second compound 0.316 µM, first compound 0.316 µM
[16] = second compound 0.316 µM, first compound 1 µM
[17] = second compound 0.316 µM, first compound 3.16 µM
[18] = second compound 0.316 µM, first compound 10 µM
[19] = second compound 1 µM, first compound 0.0316 µM
[20] = second compound 1 µM, first compound 0.1 µM
[21] = second compound 1 µM, first compound 0.316 µM
[22] = second compound 1 µM, first compound 1 µM
[23] = second compound 1 µM, first compound 3.16 µM
[24] = second compound 1 µM, first compound 10 µM
[25] = second compound 3.16 µM, first compound 0.0316 µM
[26] = second compound 3.16 µM, first compound 0.1 µM
[27] = second compound 3.16 µM, first compound 0.316 µM
[28] = second compound 3.16 µM, first compound 1 µM
[29] = second compound 3.16 µM, first compound 3.16 µM
[30] = second compound 3.16 µM, first compound 10 µM
[31] = second compound 10 µM, first compound 0.0316 µM
[32] = second compound 10 µM, first compound 0.1 µM
[33] = second compound 10 µM, first compound 0.316 µM
[34] = second compound 10 µM, first compound 1 µM
[35] = second compound 10 µM, first compound 3.16 µM
[36] = second compound 10 µM, first compound 10 µM
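Note: luminescence signal used as a surrogate for viable cells; spheroids exposed to drugs for seven days before readout.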

`C=CC(=O)N1CCN(c2nc(=O)n(-c3c(C)ccnc3C(C)C)c3nc(-c4c(O)cccc4F)c(F)cc23)C(C)C1` (stereo unspecified) + Cc1cccc(N(C)C(=O)C2C(O)CCN2c2nc(C)cc(C(F)(F)F)c2C#N)c1 gave an IC50 (second compound 0.0316 µM) greater than 10 µM, an IC50 (second compound 0.1 µM) greater than 10 µM and an IC50 (second compound 0.316 µM) greater than 10 µM. For the same compound, the IC50 (second compound 1 µM) was greater than 10 µM, the IC50 (second compound 3.16 µM) was greater than 10 µM and the IC50 (second compound 10 µM) was greater than 10 µM. The viability, T/C [1] was 98.6%, the viability, T/C [2] was 96.7% and the viability, T/C [3] was 102%. It also gave a viability, T/C [4] of 106%, a viability, T/C [5] of 96.3% and a viability, T/C [6] of 103%. For the same compound, the viability, T/C [7] was 104%, the viability, T/C [8] was 114% and the viability, T/C [9] was 92.2%. For the same compound, the viability, T/C [10] was 106%, the viability, T/C [11] was 96% and the viability, T/C [12] was 94.3%. For the same compound, the viability, T/C [13] was 101%, the viability, T/C [14] was 113% and the viability, T/C [15] was 108%. The viability, T/C [16] was 99.5%, the viability, T/C [17] was 102% and the viability, T/C [18] was 104%. For the same compound, the viability, T/C [19] was 105%, the viability, T/C [20] was 108% and the viability, T/C [21] was 111%. For the same compound, the viability, T/C [22] was 108%, the viability, T/C [23] was 105% and the viability, T/C [24] was 82.2%. For the same compound, the viability, T/C [25] was 103%, the viability, T/C [26] was 99.3% and the viability, T/C [27] was 98.6%. The viability, T/C [28] was 98.7%, the viability, T/C [29] was 93.9% and the viability, T/C [30] was 99.3%. It also gave a viability, T/C [31] of 102%, a viability, T/C [32] of 121% and a viability, T/C [33] of 94.8%. It also gave a viability, T/C [34] of 96.1%, a viability, T/C [35] of 79.8% and a viability, T/C [36] of 93.1%.

Work on `CC(C)n1c(=O)n(C)c2cnc3cc(F)c(-c4ccc(OCCCN5CCCCC5)nc4)cc3c21` + Cc1cccc(N(C)C(=O)C2C(O)CCN2c2nc(C)cc(C(F)(F)F)c2C#N)c1 yielded an IC50 (second compound 0.0316 µM) greater than 10 µM, an IC50 (second compound 0.1 µM) greater than 10 µM and an IC50 (second compound 0.316 µM) greater than 10 µM. For the same compound, the IC50 (second compound 1 µM) was greater than 10 µM, the IC50 (second compound 3.16 µM) was greater than 10 µM and the IC50 (second compound 10 µM) was greater than 10 µM. It also gave a viability, T/C [1] of 94.2%, a viability, T/C [2] of 91.7% and a viability, T/C [3] of 105%. The viability, T/C [4] was 97.5%, the viability, T/C [5] was 98.7% and the viability, T/C [6] was 82.7%. The viability, T/C [7] was 96.7%, the viability, T/C [8] was 106% and the viability, T/C [9] was 90.8%. For the same compound, the viability, T/C [10] was 98.6%, the viability, T/C [11] was 103% and the viability, T/C [12] was 81.3%. For the same compound, the viability, T/C [13] was 103%, the viability, T/C [14] was 99.9% and the viability, T/C [15] was 105%. For the same compound, the viability, T/C [16] was 103%, the viability, T/C [17] was 90.2% and the viability, T/C [18] was 87.7%. The viability, T/C [19] was 87.2%, the viability, T/C [20] was 102% and the viability, T/C [21] was 92.5%. It also gave a viability, T/C [22] of 86%, a viability, T/C [23] of 96.8% and a viability, T/C [24] of 91.2%. The viability, T/C [25] was 87.1%, the viability, T/C [26] was 96.3% and the viability, T/C [27] was 90.2%. It also gave a viability, T/C [28] of 80%, a viability, T/C [29] of 98.8% and a viability, T/C [30] of 73.6%. The viability, T/C [31] was 99.6%, the viability, T/C [32] was 101% and the viability, T/C [33] was 86.8%. For the same compound, the viability, T/C [34] was 83.8%, the viability, T/C [35] was 91.8% and the viability, T/C [36] was 76.6%.

Compound `CC1COCCN1c1cc(C2(S(C)(=N)=O)CC2)nc(-c2ccnc3[nH]ccc23)n1` (stereo unspecified) + Cc1cccc(N(C)C(=O)C2C(O)CCN2c2nc(C)cc(C(F)(F)F)c2C#N)c1 has an IC50 (second compound 0.0316 µM) of 9.37 µM, an IC50 (second compound 0.1 µM) greater than 10 µM and an IC50 (second compound 0.316 µM) of 8.26 µM. The IC50 (second compound 1 µM) was 7.19 µM, the IC50 (second compound 3.16 µM) was greater than 10 µM and the IC50 (second compound 10 µM) was greater than 10 µM. The viability, T/C [1] was 97.9%, the viability, T/C [2] was 106% and the viability, T/C [3] was 102%. The viability, T/C [4] was 98.8%, the viability, T/C [5] was 83.6% and the viability, T/C [6] was 47.6%. The viability, T/C [7] was 97.5%, the viability, T/C [8] was 96.6% and the viability, T/C [9] was 101%. For the same compound, the viability, T/C [10] was 83.6%, the viability, T/C [11] was 63.5% and the viability, T/C [12] was 64.7%. For the same compound, the viability, T/C [13] was 110%, the viability, T/C [14] was 107% and the viability, T/C [15] was 90.8%. For the same compound, the viability, T/C [16] was 91.6%, the viability, T/C [17] was 57.9% and the viability, T/C [18] was 49.1%. For the same compound, the viability, T/C [19] was 106%, the viability, T/C [20] was 104% and the viability, T/C [21] was 80.3%. For the same compound, the viability, T/C [22] was 78.9%, the viability, T/C [23] was 44.7% and the viability, T/C [24] was 52.7%. For the same compound, the viability, T/C [25] was 111%, the viability, T/C [26] was 109% and the viability, T/C [27] was 98.5%. For the same compound, the viability, T/C [28] was 87.3%, the viability, T/C [29] was 78.3% and the viability, T/C [30] was 70.8%. The viability, T/C [31] was 88.3%, the viability, T/C [32] was 99.8% and the viability, T/C [33] was 86%. The viability, T/C [34] was 92.7%, the viability, T/C [35] was 68.5% and the viability, T/C [36] was 63.5%.
